Data: US20250170224A1, “METHODS AND COMPOSITIONS FOR TREATING MICROGLIAL DYSFUNCTION AND IMPROVING METABOLIC DYSFUNCTION” (Ultimate Medicine AG, priority 2021, published 2025)

What was measured:
[1] = system: microglia; format: in vivo; details: young-adult mice, i.p. once per day for two weeks; for intracellular ROS production / oxidative stress in microglia: CellROX
Description: Mice of the aged group in the nontargeted metabolomics analysis were 17-18 months old. Except for nontargeted metabolomics and microbiota profiling, where only male mice were used, all groups included mice from both sexes. Mice were housed under a 12-hour light/12-hour dark cycle and temperatures of 18-23° C. with 40-60% humidity, with food and water given ad libitum. To avoid cage effects, mice from at least three different cages per experimental group were analyzed. […] For modulation of CML in aged animals, 18-month-old SPF housed C57BL/6 mice were treated orally every third day for 10 weeks with vehicle (20% hydroxypropyl-p-cyclodextrin in 1× phosphate-buffered saline (PBS)), 10 mg kg^−1 ellagic acid (EA) or 3,000 U kg^−1 intestinal alkaline phosphatase (IAP). To assess in vivo intestinal permeability, tracer fluorescein isothiocyanate (FITC)-labeled dextran (4 kDa: Sigma-Aldrich) was used. Briefly, mice were deprived of food 4 hours before and both food and water 4 hours after oral gavage using 200 μl of 80 mg ml^−1 FITC-dextran. Blood was collected retro-orbitally after 4 hours and fluorescence intensity was measured on fluorescence plates using an excitation wavelength of 493 nm and an emission wavelength of 518 nm. To assess in vivo intestinal permeability to CML, mice were treated with […] CML (0.36 mM). Blood was collected retro-orbitally immediately before and 4 hours after treatment. CML translocated into the circulation was measured by liquid chromatography-mass spectrometry (LC-MS). All animal experiments were approved by the local administration in Germany (Regierungsprasidium Freiburg) and were performed in accordance with the respective national, federal, and institutional regulations and the guidelines of the Federation of European Laboratory Animal Science Associations.
Mice were lethally anesthetized with ketamine (100 mg kg^−1 body weight) and xylazine (10 mg kg^−1 body weight) followed by perfusion with 1×PBS through the left heart chamber. For histology, brains were kept overnight in 4% paraformaldehyde (PFA). For flow cytometry and magnetic-activated cell sorting (MACS) beads cell sorting, brains were dissected, homogenized and filtered through a […] mesh. […] Myelin was removed from the top layer and the cell pellet was washed once with 1×PBS followed by antibody staining.
Brain specimens from the cortex were first fixed overnight in 3% glutaraldehyde at 4° C., washed with Sorensen buffer, and then transferred to 1% osmium tetroxide for 2 hours at room temperature. Next, samples were dehydrated by a graded series of ethanol (30-100%) followed by 100% propylene oxide, resin/propylene oxide (1:2 (v/v)) and resin/propylene oxide (2:1 (v/v)). Samples were embedded in resin via polymerization for 24 hours at 75° C. Then, 700-nm semithin sections were cut and stained with 2% toluidine blue to define the region of interest for further preparation of 70 nm ultrathin sections using an ultramicrotome (Leica Reichert Ultracut S) after contrasting the sections with uranyl acetate and lead citrate (Leica Reichert Ultrastainer). To assess the mitochondrial phenotype in microglia, images were acquired with a ×7,900 or ×46,000 magnification using a CM100 electron microscope (Philips).
Cell sorting for RT-qPCR and RNA sequencing (RNA-seq) was performed on a MoFlo Astrios (Beckman Coulter; FIG. 7a). Before surface staining, dead cells were excluded by using the Fixable Viability Dye eFluor 780 (1:1,000 dilution; Thermo Fisher Scientific) followed by incubation with Fc receptor blocking antibody CD16/CD32 (1:200 dilution, clone 2.4G2; BD Bioscience). […] To assess microglial cellular reactive oxidative species (ROS), the CellROX DeepRed Reagent ([…]; Thermo Fisher Scientific) was used. To assess mitochondrial activity, Tetramethylrhodamine, Methyl Ester, Perchlorate (50 nM; Thermo Fisher Scientific) and MitoTracker Green FM (20 nM; Thermo Fisher Scientific) were used.

[2] = system: gut barrier / microglia; test: Aged SPF mice (18 months old) treated orally every third day for 10 weeks with EA or IAP; format: in vivo, mouse (C57BL/6); details: for ATP levels in microglia / cellular ROS in microglia (CellROX): compared to vehicle-treated aged mice; for CML accumulation in the brain (LC-MS) / gut permeability (FITC-dextran 4 kDa translocation to the circulation): oral, every 3 days for 10 weeks
Description: Specific pathogen-free (SPF) and germ-free (GF) housed C57BL/6 mice were analyzed at 6-10 weeks of age (young-adult) and 96-104 weeks of age (aged). Mice of the aged group in the nontargeted metabolomics analysis were 17-18 months old. Except for nontargeted metabolomics and microbiota profiling, where only male mice were used, all groups included mice from both sexes. Mice were housed under a 12-hour light/12-hour dark cycle and temperatures of 18-23° C. with 40-60% humidity, with food and water given ad libitum. To avoid cage effects, mice from at least three different cages per experimental group were analyzed. For the treatment, young-adult mice (8 weeks old) were injected intraperitoneally or by oral gavage with CML (0.735 mg kg^−1; Iris Biotech), trimethylamine N-oxide (TMAO) (3.95 mg kg^−1; Sigma-Aldrich), sodium acetate (59 mg kg^−1; Sigma-Aldrich) and sodium propionate (4.61 mg kg^−1; Sigma-Aldrich) daily for 14 days. For modulation of CML in aged animals, 18-month-old SPF housed C57BL/6 mice were treated orally every third day for 10 weeks with vehicle (20% hydroxypropyl-p-cyclodextrin in 1× phosphate-buffered saline (PBS)), 10 mg kg^−1 ellagic acid (EA) or 3,000 U kg^−1 intestinal alkaline phosphatase (IAP). To assess in vivo intestinal permeability, tracer fluorescein isothiocyanate (FITC)-labeled dextran (4 kDa: Sigma-Aldrich) was used. Briefly, mice were deprived of food 4 hours before and both food and water 4 hours after oral gavage using 200 μl of 80 mg ml^−1 FITC-dextran. Blood was collected retro-orbitally after 4 hours and fluorescence intensity was measured on fluorescence plates using an excitation wavelength of 493 nm and an emission wavelength of 518 nm. To assess in vivo intestinal permeability to CML, mice were treated with […] CML (0.36 mM). Blood was collected retro-orbitally immediately before and 4 hours after treatment. CML translocated into the circulation was measured by liquid chromatography-mass spectrometry (LC-MS). All animal experiments were approved by the local administration in Germany (Regierungsprasidium Freiburg) and were performed in accordance with the respective national, federal, and institutional regulations and the guidelines of the Federation of European Laboratory Animal Science Associations.
Cell sorting for RT-qPCR and RNA sequencing (RNA-seq) was performed on a MoFlo Astrios (Beckman Coulter; FIG. 7a). Before surface staining, dead cells were excluded by using the Fixable Viability Dye eFluor 780 (1:1,000 dilution; Thermo Fisher Scientific) followed by incubation with Fc receptor blocking antibody CD16/CD32 (1:200 dilution, clone 2.4G2; BD Bioscience). The following antibodies were used for surface staining: anti-CD45 (1:200 dilution, clone 30-F11; Thermo Fisher Scientific); anti-CD11b (1:200 dilution, clone MI/70; Thermo Fisher Scientific). The following lineage antibodies were used (all at 1:300 dilution): anti-CD3 (clone 17A2; BioLegend); anti-CD19 (clone 6D5; BioLegend); anti-CD45R (clone RA3-6B2; BD Biosciences); Ly6C (clone AL-21; BD Biosciences); Ly6G (clone 1A8; BD Biosciences). To assess microglial cellular reactive oxidative species (ROS), the CellROX DeepRed Reagent ([…]; Thermo Fisher Scientific) was used. To assess mitochondrial activity, Tetramethylrhodamine, Methyl Ester, Perchlorate (50 nM; Thermo Fisher Scientific) and MitoTracker Green FM (20 nM; Thermo Fisher Scientific) were used. Dead cells were excluded by short incubation with DAPI before flow cytometry analysis with the FACSCanto II (BD Biosciences). Data were acquired with the FACSDiva v.6 software (Becton Dickinson). Postacquisition analysis was performed with FlowJo v.10 (FlowJo LLC).
To avoid the cellular stress of fluorescence-activated cell sorting (FACS), microglial cells were isolated using the magnetic-activated cell sorting (MACS) separation system (Miltenyi Biotec; FIG. 7b). […]

[3] = healthy subjects; ingested lactulose 5 grams, mannitol 1 gram; cited from earlier work

## CCC(=O)[O-].[Na+] [sodium propionate]
[1]
  metabolic function (metabolic/mitochondrial activity) of microglia: no effect
  intracellular ROS production / oxidative stress in microglia: no effect

## C[N+](C)(C)[O-] [TMAO, trimethylamine N-oxide]
[1]
  metabolic function (metabolic/mitochondrial activity) of microglia: no effect
  intracellular ROS production / oxidative stress in microglia: no effect

## CC(=O)[O-].[Na+] [sodium acetate]
[1]
  metabolic function (metabolic/mitochondrial activity) of microglia: no effect
  intracellular ROS production / oxidative stress in microglia: no effect

## O=c1oc2c(O)c(O)cc3c(=O)oc4c(O)c(O)cc1c4c23 [EA, ellagic acid]
[2]
  ATP levels in microglia: increased ATP levels
  cellular ROS in microglia (CellROX): significant reduction
  CML accumulation in the brain (LC-MS): reduced
  gut permeability (FITC-dextran 4 kDa translocation to the circulation): no direct effect

## OC[C@H]1O[C@@H](O[C@@H]2[C@@H](CO)OC(O)(CO)[C@H]2O)[C@H](O)[C@@H](O)[C@H]1O (mixture of isomers) [lactulose]
[3]
  normal value of excretion in urine (percentage of ingested amount): about 0.35%

## OC[C@@H](O)[C@@H](O)[C@H](O)[C@H](O)CO [mannitol]
[3]
  normal value of excretion in urine (percentage of ingested amount): ~12.3%

B1: IAP: intestinal alkaline phosphatase, an endogenous enhancer of the gut barrier function (exemplary CAS No. 9001-78-9 (calf)) (protein, UniProt P19111 20-506, looked up)
Intestinal-type alkaline …: LVPVEEEDPAFWNRQAAQALDVAKKLQPIQTAAKNVILFLGDGMGVPTVTATRILKGQMNGKLGPETPLAMDQFPYVALSKTYNVDRQVPDSAGTATAYLCGVKGNYRTIGVSAAARYNQCKTTRGNEVTSVMNRAKKAGKSVGVVTTTRVQHASPAGAYAHTVNRNWYSDADLPADAQMNGCQDIAAQLVNNMDIDVILGGGRKYMFPVGTPDPEYPDDASVNGVRKRKQNLVQAWQAKHQGAQYVWNRTALLQAADDSSVTHLMGLFEPADMKYNVQQDHTKDPTLQEMTEVALRVVSRNPRGFYLFVEGGRIDHGHHDDKAYMALTEAGMFDNAIAKANELTSELDTLILVTADHSHVFSFGGYTLRGTSIFGLAPSKALDSKSYTSILYGNGPGYALGGGSRPDVNDSTSEDPSYQQQAAVPQASETHGGEDVAVFARGPQAHLVHGVEEETFVAHIMAFAGCVEPYTDCNLPAPTTATSIPD
[2]
  ATP levels in microglia: increased ATP levels
  cellular ROS in microglia (CellROX): significant reduction
  CML accumulation in the brain (LC-MS): reduced
  gut permeability (FITC-dextran 4 kDa translocation to the circulation): lower gut leakiness
